Data: patent publication US9750841B2, “Biodegradable medical adhesive and preparation method and use thereof” (INSTITUTE OF PHARMACOLOGY AND TOXICOLOGY ACADEMY OF …, priority 2011, dated 2017)

Columns and labels:
[1] = Degradation of cured adhesive in PBS buffer; assay type: physicochemical; conditions: 14 days, 0.1 M phosphate buffer pH 7.2-7.4, 37.5° C., average of three samples
Text: After 14 days, the residual solids were weighed. The results were used to evaluate the degradation properties.

[2] = Adhesion test of skin incision injury of dog; assay type: in vivo; conditions: 4 cm skin incision, two stitches plus adhesive, after one week
Protocol: Adult test dogs (purchased from Experimental Animal Center of Academy of Military Medical Sciences) were unhaired on the neck and back, and disinfected. A longitudinal incision of about 4 cm in length was cut on the left side, deep to muscular layer. […] On the other side of the same position, an incision of the same size was cut, and also sutured in two stitches. Then, the wound was treated in the same way with n-butyl cyanoacrylate.

[3] = Intestinal skyrocketing compression test in rats; assay type: in vivo, SD rats; conditions: rat small intestine, 2 mm hole closed with 5 uL adhesive, tested after 3 min, seven animals per group
Protocol: Twenty SD rats (purchased from Experimental Animal Center of Academy of Military Medical Sciences) were anaesthetized by intraperitoneal injection of 45 mg/kg sodium pentobarbital, and unhaired on the abdomen. The abdominal cavity was opened, and a section of small intestine 45 mm was taken out. One end of the small intestine was ligated with a silk thread, and the other end was cut to make a small incision, which was then connected to a three-way tube in connection with a pressure gauge and a tension transducer. A syringe needle 2 mm in diameter was used to open a small hole in the small intestine. After cleaning off drainage with cotton, the small hole was rapidly closed by smearing 5 uL medical adhesive, and then test was conducted after standing for 3 min. […] The pressure value at this point was just the maximum tolerable pressure. There were seven animals per group, and the average value and variance were calculated.

[4] = rat, in vivo
Protocol: Two groups of adult rats, each six, were taken. The abdominal cavity was opened, a section of small intestine was lifted and stretched out with a biodegradable thread, approximately 1 cm away from the body, and in an inverted “U” shape. […] After the adhesive bond was completely cured and the small intestine was adhered together (about 1 minute), the small intestine was put back into the abdominal cavity, followed by suturing. Normal healing time of biological tissue was about 7-10 days. After 2 weeks, the small intestine was stretched out again, for observing the changes of the small intestine per se and the adhesive bond.

[5] = Adhesion test of skin incision injury, rats; assay type: in vivo; conditions: 2 cm dorsal skin incision, observed over 7 days
Protocol: (§1) Five adult rats and five guinea pigs were unhaired on the back, and subjected to abdominal anesthesia. After the back was disinfected, a longitudinal incision of about 2 cm in length was cut about 1 cm next to the dorsal line, deep to muscular layer. […] On the other side of the back, an incision of the same size was cut, and the wound was treated in the same way with the control adhesive n-butyl cyanoacrylate. Finally, the operative sites were bandaged using gauze.

[6] = Adhesion test of skin incision injury, guinea pigs; assay type: in vivo; conditions: 2 cm dorsal skin incision, observed over 7 days
Protocol: as §1

[7] = Accelerated degradation in 0.1 N NaOH solution; assay type: physicochemical; conditions: disappearance to the naked eye
Protocol: Further accelerated degradation test was carried out in a 0.1 N NaOH solution. The operation method was the same as that provided in this example, with the use of formulated adhesive J01 and the control as samples. The time point when the adhesive bond completely disappeared to the naked eye was regarded as the complete degradation time.

[8] = TEM test of adhesive structure; assay type: physicochemical; conditions: 0.1 mg/mL dilution in water, phosphotungstic acid staining
Protocol: 20 mg of adhesive (A, n-butyl cyanoacrylate as control; B, formulated adhesive J01 (bis-α-cyanoacrylic acid PEG2000 ester:n-butyl cyanoacrylate 1:1, i.e., the formulated adhesive in Example 1) was dissolved in 1 mL of redistilled acetone, to obtain a homogeneous solution, which was diluted by 100-fold. 0.5 mL of the dilution was taken and mixed with 0.5 mL of deionized water. Acetone was distilled off, and water was supplemented till 1 mL, to obtain a 0.1 mg/mL dilution. 15 uL of the dilution was dropped on a copper web-like of electron microscopy, and settled for 15 min. Then, water was removed by adsorption with filter paper. After staining with 5 uL of phosphotungstic acid for 2 min, the samples were observed by transmission electron microscopy.

[9] = Test of curing time of formulated adhesives on pigskin; assay type: physicochemical; conditions: between two pieces of pigskin, room temperature
Text: Test Method: The medical adhesives of different formulations in Examples 1 and 2 were respectively dropped in a small amount on the surface of one piece of pigskin at room temperature, and the other piece of pigskin was rapidly lapped thereon; the two pieces of pigskin were respectively pulled in opposite directions, to test the adhesion between them. The duration starting from the generation of adhesion between the two pieces of pigskin to the complete cure of the liquid adhesive between the two pieces of pigskin after lapping for a certain time was designated as the curing time.

Q: Which results are given for C=C(C#N)C(=O)OCCCC [n-butyl cyanoacrylate]?
A: Residual solids % in PBS [1]: 95.74%; wound healing [2]: good healing; maximum tolerable pressure [3]: 120.22±26.81 mmHg; changes of the small intestine tissue [4]: significantly had hyperplasia and significantly became thicker; wound closure [5]: well closed; wound closure [6]: well closed; complete degradation time in NaOH (solids completely disappeared) [7]: 4 days; structure observed by transmission electron microscopy [8]: relatively solid and dense microsphere structure; curing time [9]: 5 to 15 s
